Drawing on patent US8501794B2, “Compounds as cannabinoid receptor ligands” (priority 2007, dated 2013), this text covers Ki and EC50 for 24 compounds.

Test [1] addresses T1, human CB2 receptors (Homo sapiens, UniProt P34972).
T1 construct: expressed in transfected cells; host or cells: HEK293
Briefly: human CB2 radioligand binding assay ([3H]CP-55,940 competition).

Test [2] concerns the target T2, rat CB2 (Rattus norvegicus, UniProt Q9QZN9).
T2 sequence (Q9QZN9 1-360): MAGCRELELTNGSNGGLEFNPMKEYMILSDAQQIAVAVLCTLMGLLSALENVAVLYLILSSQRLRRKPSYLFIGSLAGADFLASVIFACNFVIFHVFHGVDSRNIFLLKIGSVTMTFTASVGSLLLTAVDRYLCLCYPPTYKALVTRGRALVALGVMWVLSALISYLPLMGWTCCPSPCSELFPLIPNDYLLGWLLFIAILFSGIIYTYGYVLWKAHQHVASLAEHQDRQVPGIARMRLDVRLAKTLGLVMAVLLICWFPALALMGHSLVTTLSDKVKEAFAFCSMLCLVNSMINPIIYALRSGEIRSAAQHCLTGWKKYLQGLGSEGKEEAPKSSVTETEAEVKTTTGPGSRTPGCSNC
Briefly: rat CB2 cyclase functional assay (HitHunter cAMP, HEK cells). Format: cell-based. Also on record: expressed in transfected cells; host or cells: HEK. The note with it: forskolin 18 μM.

The target of test [3] is T2, rat CB2. Briefly: rat CB2 radioligand binding assay ([3H]CP-55,940 competition). Also on record: expressed in transfected cells; host or cells: HEK293.

T1 sequence (P34972 whole entry): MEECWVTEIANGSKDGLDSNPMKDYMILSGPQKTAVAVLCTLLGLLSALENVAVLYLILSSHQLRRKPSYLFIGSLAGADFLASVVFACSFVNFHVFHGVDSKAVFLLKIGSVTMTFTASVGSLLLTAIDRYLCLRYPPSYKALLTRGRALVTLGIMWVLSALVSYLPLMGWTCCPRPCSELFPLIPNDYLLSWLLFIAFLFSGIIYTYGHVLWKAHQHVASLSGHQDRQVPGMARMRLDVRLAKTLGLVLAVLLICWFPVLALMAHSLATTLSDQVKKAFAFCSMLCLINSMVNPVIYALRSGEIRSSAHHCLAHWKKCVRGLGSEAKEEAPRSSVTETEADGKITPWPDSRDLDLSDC

`CCCCc1cn(C(C)(C)C)s/c1=N\C(=NC#N)c1cc(C(F)(F)F)ccc1OCC` [Example 126, N-[(5Z)-4-butyl-2-tert-butylisothiazol-5(2H)-ylidene]-N′-cyano-2-ethoxy-5-(trifluoromethyl)benzenecarboximidamide]: the results for the inhibition constant (Ki) in test [1] and in test [3] were 0.6 nM and 1.2 nM, respectively. The compound also gave a concentration giving a half-maximal response (EC50) in test [2] of 0.076 nM.
`COc1ccc(C(F)(F)F)cc1C(=O)/N=c1\sn(C(C)(C)C)cc1CCCC#N` [Example 134, N-[(5Z)-2-tert-butyl-4-(3-cyanopropyl)isothiazol-5(2H)-ylidene]-2-methoxy-5-(trifluoromethyl)benzamide]: the inhibitory constant (Ki) came out at 18 nM in test [1] and 1.1 nM in test [3]. For the same compound, the concentration for a half-maximal effect (EC50) in test [2] was 1.6 nM.
The like results for `CCCCc1cn(C(C)(C)C)s/c1=N\C(=O)[C@@]1(C)CC[C@@H](C(=O)N(C)C)C1(C)C` [Example 223, (1S,3R)—N^1-[(5Z)-4-butyl-2-tert-butylisothiazol-5(2H)-ylidene]-N^3,N^3,1,2,2-pentamethylcyclopentane-1,3-dicarboxamide] were, in that order, 92 nM, 62 nM and 5.8 nM.
For `CCCCc1cn(C(C)(C)C)s/c1=N\C(=O)c1cc(C(C)(F)F)ccc1OC` [Example 69, N-[(5Z)-4-butyl-2-tert-butylisothiazol-5(2H)-ylidene]-5-(1,1-difluoroethyl)-2-methoxybenzamide], the Ki in test [1] was 18 nM; in test [3], 1.6 nM. Moreover, in test [2], it took 0.043 nM to reach a half-maximal effect (EC50).
The like results for `COc1ccc(Cl)cc1C(=O)/N=c1\sn(C(C)(C)C)cc1CCCC(C)(C)F` [Example 83, N-[(5Z)-2-tert-butyl-4-(4-fluoro-4-methylpentyl)isothiazol-5(2H)-ylidene]-5-chloro-2-methoxybenzamide] were, in that order, 12 nM, 0.79 nM and 0.073 nM.
The like results for `CCCCc1cn(C(C)(C)C)s/c1=N\C(=O)[C@@]1(C)CC[C@@H](C(=O)OC)C1(C)C` [Example 186, Methyl (1R,3S)-3-({[(5Z)-4-butyl-2-tert-butylisothiazol-5(2H)-ylidene]amino}carbonyl)-2,2,3-trimethylcyclopentanecarboxylate] were, in that order, 1.7 nM, 1.4 nM and 0.38 nM.
The like results for `COc1ccc(C#N)cc1C(=O)/N=c1\sn(C(C)(C)C)cc1Cc1ccco1` [Example 51, N-[(5Z)-2-tert-butyl-4-(2-furylmethyl)isothiazol-5(2H)-ylidene]-5-cyano-2-methoxybenzamide] were, in that order, 140 nM, 8.1 nM and 0.3 nM.
With `COc1ccc(Cl)cc1C(=O)/N=c1\sn(C(C)(C)C)cc1CC1OCCO1` [Example 22, N-[(5Z)-2-tert-butyl-4-(1,3-dioxolan-2-ylmethyl)isothiazol-5(2H)-ylidene]-5-chloro-2-methoxybenzamide], the Ki in test [1] stood at 67 nM; in test [3], 6.2 nM. The compound also returned an EC50 in test [2] of 0.24 nM.
With `COc1ccc(Cl)cc1C(=NC#N)/N=c1\sn(C(C)(C)C)cc1CCCC#N` [Example 128, N-[(5Z)-2-tert-butyl-4-(3-cyanopropyl)isothiazol-5(2H)-ylidene]-5-chloro-N′-cyano-2-methoxybenzenecarboximidamide], the inhibitory constant (Ki) is 15 nM in test [1] and 5.8 nM in test [3]. Further, in test [2], a half-maximal effect (EC50) was put at 0.26 nM.
In the same order, the values of `COc1ccc(C(F)(F)F)cc1C(=O)/N=c1\sn(C(C)(C)C)cc1Cc1ccco1` [Example 71, N-[(5Z)-2-tert-butyl-4-(2-furylmethyl)isothiazol-5(2H)-ylidene]-2-methoxy-5-(trifluoromethyl)benzamide] are 28 nM, 1.9 nM and 0.36 nM.
In the same order, the values of `CCCCc1cn(C(C)(C)C)s/c1=N\C(=O)[C@]1(C)CC[C@H](NC(N)=O)C1(C)C` [Example 245, (1R,3S)-3-[(aminocarbonyl)amino]-N-[(5Z)-4-butyl-2-tert-butylisothiazol-5(2H)-ylidene]-1,2,2-trimethylcyclopentanecarboxamide] are 32 nM, 35 nM and 9.6 nM.
Take `CCCCc1cn(C(C)(C)C)s/c1=N\C(=O)[C@]1(C)CC[C@H](C(=O)O)C1(C)C` [Example 173, (1S,3R)-3-({[(5Z)-4-butyl-2-tert-butylisothiazol-5(2H)-ylidene]amino}carbonyl)-2,2,3-trimethylcyclopentanecarboxylic acid]: the Ki in test [1] turned out to be 107 nM; in test [3] it was 77 nM. For the same compound, in test [2], the EC50 amounted to 3.5 nM.
On to `COc1ccc(Cl)cc1C(=O)/N=c1\sn(C(C)(C)C)cc1CCC#N` [Example 19, N-[(5Z)-2-tert-butyl-4-(2-cyanoethyl)isothiazol-5(2H)-ylidene]-5-chloro-2-methoxybenzamide], for which the results for the inhibitory constant (Ki) in test [1] and in test [3] were 44 nM and 7.1 nM, respectively. Also, the EC50 in test [2] was determined as 0.57 nM.
In the same order, the values of `COc1ccc(Cl)cc1C(=O)/N=c1\sn(C(C)(C)C)cc1CCC(C)O` (stereo not drawn) [Example 18, N-[(5Z)-2-tert-butyl-4-(3-hydroxybutyl)isothiazol-5(2H)-ylidene]-5-chloro-2-methoxybenzamide] are 86 nM, 4.3 nM and 2.7 nM.
The like results for `CCCCc1cn(C(C)(C)C)s/c1=N\C(=O)c1cc(C(F)(F)F)ccc1OCC1CCCCN1C` (stereo not drawn) [Example 196, N-[(5Z)-4-butyl-2-tert-butylisothiazol-5(2H)-ylidene]-2-[(1-methylpiperidin-2-yl)methoxy]-5-(trifluoromethyl)benzamide] were, in that order, 18 nM, 28.8 nM and 2.4 nM.
In the same order, the values of `CCCCc1cn(C(C)(C)C)s/c1=N\C(=O)C1(C)CCC(C(=O)OC)C1(C)C` (racemic) [Example 92, Methyl 3-({[(5Z)-4-butyl-2-tert-butylisothiazol-5(2H)-ylidene]amino}carbonyl)-2,2,3-trimethylcyclopentanecarboxylate] are 0.2 nM, 0.25 nM and 0.45 nM.
Regarding `CCCCc1cn(C(C)(C)C)s/c1=N\C(=O)[C@]1(C)CC[C@H](C2=NCCO2)C1(C)C` [Example 217, (1R,3S)—N-[(5Z)-4-butyl-2-tert-butylisothiazol-5(2H)-ylidene]-3-(4,5-dihydro-1,3-oxazol-2-yl)-1,2,2-trimethylcyclopentanecarboxamide], the figures for the inhibition constant Ki in test [1] and in test [3] were 0.7 nM and 0.73 nM, respectively. The compound further gave an EC50 in test [2] of 0.16 nM.
In the same order, the values of `CCCCc1cn(C(C)(C)C)s/c1=N\C(=O)[C@@]1(C)CC[C@@H](C(=O)O)C1(C)C` [Example 174, (1R,3S)-3-({[(5Z)-4-butyl-2-tert-butylisothiazol-5(2H)-ylidene]amino}carbonyl)-2,2,3-trimethylcyclopentanecarboxylic acid] are 62 nM, 33 nM and 3.4 nM.
The like results for `COc1ccc(Cl)cc1C(=O)/N=c1\sn(C(C)(C)C)cc1CCCCC#N` [Example 138, N-[(5Z)-2-tert-butyl-4-(4-cyanobutyl)isothiazol-5(2H)-ylidene]-5-chloro-2-methoxybenzamide] were, in that order, 5.9 nM, 0.9 nM and 12.8 nM.
For the compound `CCCCc1cn(C(C)(C)C)s/c1=N\C(=O)C1(C)CCC(C(=O)O)C1(C)C` (stereo not drawn) [Example 96, 3-({[(5Z)-4-butyl-2-tert-butylisothiazol-5(2H)-ylidene]amino}carbonyl)-2,2,3-trimethylcyclopentanecarboxylic acid], the results for the inhibition constant Ki in test [1] and in test [3] were 20 nM and 27 nM, respectively. The compound also registered an EC50 in test [2] of 1.4 nM.
The like results for `COc1ccc(C(F)(F)F)cc1C(=O)/N=c1\sn(C(C)(C)C)cc1CCCC(C)=O` [Example 76, N-[(5Z)-2-tert-butyl-4-(4-oxopentyl)isothiazol-5(2H)-ylidene]-2-methoxy-5-(trifluoromethyl)benzamide] were, in that order, 24 nM, 2.2 nM and 0.13 nM.
Consider `CCCCc1cn(C(C)(C)C)s/c1=N\C(=O)[C@@]1(C)CC[C@@H](C(=O)NC)C1(C)C` [Example 218, (1S,3R)—N^1-[(5Z)-4-butyl-2-tert-butylisothiazol-5(2H)-ylidene]-N^3,1,2,2-tetramethylcyclopentane-1,3-dicarboxamide], for which the Ki in test [1] was 53 nM; in test [3] it was 29 nM. Besides, the EC50 in test [2] was determined as 1.1 nM.
As for `CCCCc1cn(C(C)(C)C)s/c1=N\C(=O)c1cc(C=O)ccc1OC` [Example 56, N-[(5Z)-4-butyl-2-tert-butylisothiazol-5(2H)-ylidene]-5-formyl-2-methoxybenzamide], the Ki came to 11 nM in test [1] and 1.2 nM in test [3]. This compound displayed an EC50 in test [2] of 0.076 nM.
The like results for `CCCCc1cn(C(C)(C)C)s/c1=N\C(=O)c1cc(Cl)ccc1OCC(N)=O` [Example 140, 2-(2-amino-2-oxoethoxy)-N-[(5Z)-4-butyl-2-tert-butylisothiazol-5(2H)-ylidene]-5-chlorobenzamide] were, in that order, 11 nM, 3.9 nM and 0.15 nM.
